Several values for one entry are separate records, joined by “and”; a condition that tells them apart may be missing. Equal entries are not always repeated. Where two headings read alike, the source gives them in different places.
Test system: human sebocytes
Test: Sebum suppression: 14C-acetate label remaining in cultured human sebocytes after treatment
Type: cell-based
Conditions: for activity at 1 µM / activity at 10 µM / activity at 100 µM / activity at 0.1 µM: read-out: % of Control; for sebum suppressive activity in the presence of retinol: in the presence of retinol / a retinoid versus compound alone
Protocol: Compounds A through K were tested for their potential to suppress sebum expression, alone or in the presence of a retinoid.
Secondary cultures of human sebocytes obtained from an adult […] were grown in 48-well tissue culture plates (Costar Corp.; Cambridge, Mass.) or 96-well tissue culture plates (Packard Co.; Meriden, Conn.) until confluent. Sebocyte growth medium consisted of Clonetics Keratinocyte Basal Medium (KBM) supplemented with 14 μg/ml bovine pituitary extract, 0.4 μg/ml hydrocortisone, 5 μg/ml insulin, […], 1.2×10^-10 M cholera toxin, 100 units/ml penicillin, and 100 μg/ml streptomycin. All cultures were incubated at 37° C. in the presence of 7.5% CO2. Medium was changed three times per week.
On the day of experimentation, the growth medium was removed and the sebocytes washed three times with sterile Dulbecco's Modified Eagle Medium (DMEM; phenol red free). Fresh DMEM was added to each sample (duplicates, triplicates, or quadruplicates depending on the experiment) with 5 microliter of test agent solubilized in ethanol either alone or in the presence of one or 10 micromolar of retinol. Controls consisted of addition of ethanol alone, retinol alone, or phenol red, which has estrogen-like activity and is included as a positive control.
Each plate was returned to the incubator for 20 hours followed by the addition of 14C-acetate buffer (5 mM final concentration, 56 mCi/mmol specific activity). Sebocytes were returned to the incubator for four hours afterwhich each culture was rinsed three times with phosphate buffered saline to remove unbound label. Radioactive label remaining in the sebocytes was harvested and counted using a Beckman scintillation counter.

[1] = 1 μM test agent + 10 μM Retinol
[2] = 10 μM test agent + 1 μM Retinol
[3] = Homo sapiens, 1 μM test agent + 1 μM Retinol
[4] = Homo sapiens, 1 μM test agent + 10 μM Retinol
[5] = Homo sapiens, 1 μM test agent alone
[6] = Homo sapiens, 10 μM test agent + 1 μM Retinol
[7] = Homo sapiens, 10 μM test agent alone
[8] = 10 μM test agent + 10 μM Retinol
[9] = Homo sapiens, 10 μM test agent + 10 μM Retinol
[10] = Homo sapiens, 100 μM test agent + 1 μM Retinol
[11] = Homo sapiens, 100 μM test agent + 10 μM Retinol
[12] = Homo sapiens, 100 μM test agent alone

COc1ccc(S(=O)(=O)Nc2cccc(C(C)O)c2)cc1 (stereo not drawn) [Compound A]
% of Control (1 μM test agent + 1 μM Retinol): 102.5% | % of Control [1]: 94.6% | % of Control (1 μM test agent alone, 1 µM): 100.7% | % of Control [2]: 65.8% | % of Control (10 μM test agent alone, 10 µM): 91.9% | activity at 1 µM [3]: 112% | activity at 1 µM [4]: 101% | activity at 1 µM [5]: 111% | activity at 10 µM [6]: 46% | activity at 10 µM [7]: 109% | sebum suppressive activity in the presence of retinol: improved sebum suppressive activity

CC(O)c1cccc(NS(=O)(=O)c2c(F)c(F)c(F)c(F)c2F)c1 (stereo not drawn) [Compound B]
% of Control (1 μM test agent + 1 μM Retinol): 94.7% | % of Control [1]: 96.5% | % of Control (1 μM test agent alone, 1 µM): 98.4% | % of Control [2]: 90.1% | % of Control [8]: 84.8% | % of Control (10 μM test agent alone, 10 µM): 89.3% | activity at 1 µM [3]: 90.9% | activity at 1 µM [4]: 96.4% | activity at 1 µM [5]: 79.8% | activity at 10 µM [6]: 80.6% | activity at 10 µM [9]: 84.4% | activity at 10 µM [7]: 95.4% | activity at 100 µM [10]: 75.3% | activity at 100 µM [11]: 72.2% | activity at 100 µM [12]: 74.2%

CC(O)c1cccc(NS(=O)(=O)c2ccc(Cl)c([N+](=O)[O-])c2)c1 (stereo not drawn) [Compound C]
activity at 1 µM [3]: 87.7% | activity at 1 µM [4]: 77.5% | activity at 1 µM [5]: 101% | activity at 10 µM [6]: 95.5% | activity at 10 µM [9]: 84.8% | activity at 10 µM [7]: 79% | activity at 100 µM [10]: 20.8% | activity at 100 µM [11]: 5.3% | activity at 100 µM [12]: 37.8% | sebum suppressive activity in the presence of retinol: improved sebum suppressive activity

CC(O)c1cccc(NS(=O)(=O)c2cccc3c(N(C)C)cccc23)c1 (stereo not drawn) [Compound D]
% of Control [1]: 102.8% | % of Control (1 μM test agent alone, 1 µM): 126.4% and 102.4% | % of Control (10 μM test agent alone, 10 µM): 71.6% and 43.3% | activity at 1 µM [3]: 102% | activity at 1 µM [4]: 89.1% | activity at 10 µM [6]: 60.8% | activity at 100 µM [11]: 1.2% | activity at 100 µM [12]: 6.7% | sebum suppressive activity in the presence of retinol: improved sebum suppressive activity

CC(O)c1cccc(NS(=O)(=O)c2cccs2)c1 (stereo not drawn) [Compound E]
% of Control (1 μM test agent + 1 μM Retinol): 98.3% | % of Control [1]: 110.2% | % of Control (1 μM test agent alone, 1 µM): 103.3% | % of Control [2]: 5.7% and 1.6% | activity at 1 µM [3]: 103% | activity at 1 µM [4]: 102% | activity at 1 µM [5]: 94.6%

O=[N+]([O-])c1cc(S(=O)(=O)Nc2ccc3c(c2)OCCO3)ccc1Cl [Compound F]
% of Control (1 μM test agent + 1 μM Retinol): 100.4% and 75.9% | % of Control [1]: 74.2% | % of Control (1 μM test agent alone, 1 µM): 80.7% | % of Control [2]: 1.8% and 0.6% | activity at 1 µM [4]: 89.1% | activity at 1 µM [5]: 79.6% | activity at 10 µM [9]: 1.2%

O=S(=O)(Nc1ccc2c(c1)OCCO2)c1ccc2ccccc2c1 [Compound G]
% of Control (1 μM test agent alone, 1 µM): 82.0% | % of Control [2]: 39.9% | % of Control [8]: 13.1% | % of Control (10 μM test agent alone, 10 µM): 45.7% and 25.0% | activity at 0.1 µM (Homo sapiens, 0.1 μM test agent + 1 μM Retinol): 103% | activity at 0.1 µM (Homo sapiens, 0.1 μM test agent + 10 μM Retinol): 94.1% | activity at 0.1 µM (Homo sapiens, 0.1 μM test agent alone, 14C-acetate label in sebocytes): 101% | activity at 1 µM [5]: 67.5% | activity at 10 µM [6]: 24.8% | activity at 10 µM [9]: 17.9% | sebum suppressive activity in the presence of retinol: improved sebum suppressive activity

CN(C)c1cccc(NS(=O)(=O)c2ccc(Cl)c([N+](=O)[O-])c2)c1 [Compound H]
% of Control (1 μM test agent + 1 μM Retinol): 88.0% and 90.2% and 65.1% | % of Control [1]: 86.8% and 78.8% and 53.6% and 91.1% | % of Control (1 μM test agent alone, 1 µM): 96.1% and 71.7% and 66.6% and 83.4% | % of Control [8]: 80.3% and 76.1% and 79.2% and 118.0% | activity at 100 µM [11]: 3.9% | activity at 100 µM [12]: 44.2%

CN(C)c1cccc(NS(=O)(=O)c2ccc3ccccc3c2)c1 [Compound J]
% of Control [1]: 67.9% and 93.8% | % of Control (1 μM test agent alone, 1 µM): 55.6% | % of Control [8]: 69.8% | % of Control (10 μM test agent alone, 10 µM): 81.7% | activity at 1 µM [3]: 74.1% | activity at 1 µM [5]: 74.6% | activity at 10 µM [6]: 64.7% | activity at 10 µM [9]: 63.9% | activity at 10 µM [7]: 67.5% | activity at 100 µM [11]: 2% | activity at 100 µM [12]: 1.2%

O=S1(=O)OC(c2ccc(O)cc2)(c2ccc(O)cc2)c2ccccc21 [Phenol Red, phenol red, reference compound]
% of Control (28 μM (positive control) alone, 28 µM): 74.7% and 68.4% and 84.4% | % of Control (280 μM (positive control) alone): 54.2% and 52.5% | activity at 28 µM (Homo sapiens, 28 μM (positive control) alone): 67.6%

CC1=C(/C=C/C(C)=C/C=C/C(C)=C/CO)C(C)(C)CCC1 [Retinol, retinol, reference compound]
% of Control (1 μM test agent alone, 1 µM): 85.5% and 96.5% and 99.9% and 103.7% and 99.3% and 93.9% | activity at 1 µM [5]: 98.4% | sebum suppressive activity (alone, 1 or 10 μM): inactive

— patent US20020025332A1, “Cosmetic compositions containing substituted sulfonamide derivatives” (Unilever Home & Personal Care USA, Division of Conopco, Inc., priority 2000, published 2002)
